Experimental data as given in patent publication US20250367154A1, “FORMULATIONS FOR PROMOTING HYDRATION AND METHODS OF USE THEREOF” (UNIVERSITY OF FLORIDA RESEARCH FOUNDATION, INCORPORATED, priority 2020, published 2025).
“Also recorded” adds a separate entry of the source.

System: Small intestinal mucosal tissues (ileum and jejunum)
Test: Ussing chamber sodium flux (net Na absorption, 22Na)
Design: species or system Swiss mice
Settings: single free amino acid in solution, FIG. 4
Description: Sodium (Na) Absorption Studies: measure net fluid and electrolyte absorption, wherein absorptive processes occur predominantly in the tip of the villi and secretory processes occur in the crypt. Na absorption studies were performed on certain of the amino acids present in 6AA-Hyd. […] Small intestinal mucosal tissues (ileum and jejunum) from 8-week old male Swiss mice were mounted in Ussing chambers containing isotonic Ringer solution, that was bubbled with 95% O2 and 5% CO2 and maintained at 37° C. throughout the experiment. After the tissues were allowed to stabilize, the conductance (G; expressed as mS/cm2) was recorded, and intestinal tissues were paired based on similar conductance. Sodium radioisotope (22Na) was added to either the basolateral or apical side of each tissue pair (Hot). Ringer samples were taken every 15 minutes from the contralateral sides (Cold). Sample 22Na activity was analyzed using a gamma counter, and unidirectional net sodium flux (Jnet; μeq·cm2·h−1) was calculated. [formula] [CPM=count per minute, CPM1=previous sample, CPM2=following sample; Blank=no 22Na added; 9/10=dilution factor for each sample (0.5 mL to 5 mL); 5=chamber volume (5 mL); 4=time factor (15 min to 60 min); 140=sodium concentration; Hot CPM=“Hot” sample activity; Cold CPM=“Cold” sample activity; 10=volume factor for Hot sample (0.1 mL to 1 mL); 0.3=intestinal surface area (cm2)]

Structure (SMILES) | net sodium (Na) absorption relative to control solution
N[C@@H](CO)C(=O)O [serine] | increase net Na absorption relative to a control; also recorded: significantly higher than that of control solution
N[C@@H](CC(=O)O)C(=O)O [aspartic acid] | increase net Na absorption relative to a control; also recorded: significantly higher than that of control solution
CC(C)[C@H](N)C(=O)O [valine] | increase net Na absorption relative to a control; also recorded: significantly higher than that of control solution
